Reference: publication doi:10.1101/2024.03.05.583521v1 (biorxiv, 2024)

What was measured:
[1] = target: T1, PIB-1 (Pseudomonas aeruginosa, UniProt Q9HT32); test: intrinsic protein fluorescence quenching; assay type: binding
T1 sequence (Q9HT32 28-414): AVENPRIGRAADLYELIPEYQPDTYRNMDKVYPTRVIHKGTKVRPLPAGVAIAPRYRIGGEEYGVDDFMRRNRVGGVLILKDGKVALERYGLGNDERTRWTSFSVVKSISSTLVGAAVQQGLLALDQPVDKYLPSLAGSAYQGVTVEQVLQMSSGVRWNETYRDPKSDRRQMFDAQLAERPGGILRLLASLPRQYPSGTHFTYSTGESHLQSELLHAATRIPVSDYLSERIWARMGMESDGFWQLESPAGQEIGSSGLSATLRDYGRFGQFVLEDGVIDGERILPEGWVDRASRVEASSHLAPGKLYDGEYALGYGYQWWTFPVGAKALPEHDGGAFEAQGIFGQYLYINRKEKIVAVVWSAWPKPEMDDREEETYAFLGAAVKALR

[2] = target: T1, PIB-1; test: isothermal titration calorimetry; assay type: binding
[3] = substrate: O=C(Cc1cccs1)N[C@@H]1C(=O)N2C(C(=O)O)=C(/C=C/c3ccc([N+](=O)[O-])cc3[N+](=O)[O-])CS[C@H]12; test: purified protein; settings: no added metal, 10 mM Na-HEPES pH 7.5, 100 mM NaCl, 37 °C

`C[C@@H](O)[C@H]1C(=O)N2C(C(=O)O)=C(S[C@@H]3CN[C@H](C(=O)N(C)C)C3)[C@H](C)[C@H]12` [meropenem] gave a Kd [1] of 74.8 ± 10.3 µM.

`C[C@@H](O)[C@H]1C(=O)N2C(C(=O)O)=C(SCCN=CN)C[C@H]12` [imipenem] showed a Kd [2] of 79.8 ± 5.9 µM.

B1: PIB-1 (Pseudomonas aeruginosa PAO1) (protein)
chain: T1 sequence (Q9HT32 28-414)
In the case of B1, the Km [3] is reported as 95.3 ± 8.9 µM and the kcat [3] is reported as 0.0041 ± 0.0005 s⁻¹.
